Positions of bridges follow the written chain, without caps; N, C: chain ends. Non-standard residues stand in square brackets, D forms with d. Residues, ends and D or L forms follow the SMILES beside them. Trp(1-Me) = Cn1cc(C[C@H](N)C(=O)O)c2ccccc21; 2Nal = N[C@@H](Cc1ccc2ccccc2c1)C(=O)O; Sar = CNCC(=O)O
Experiments:
[1] = tested on: classical complement pathway; experiment: In vitro haemolysis assay (inhibition of classical complement pathway); format: cell-based, human; settings: human serum, sensitized sheep red blood cells; Table 3, given as upper bounds; read-out: IC50, inhibition of hemolysis
Summary of the method: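 Compound dilutions preincubated 15 min at room temperature with diluted human serum (titrated per batch for 70-90% maximal haemolysis), then antibody-sensitized sheep RBC (10^7/well) added for 30 min at 37 °C in Tris/casein buffer, pH 7.4. Stopped with EDTA; haemolysis read at 405 nm; IC50 by 4PL fit.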

[2] = Solubility test at 10 mg/mL (visual inspection and light scattering); format: physicochemical; settings: for Solubility, Condition 1: Acetate pH 4; for Solubility, Condition 2: Acetate pH 5; for Solubility, Condition 3: Phosphate pH 6; for Solubility, Condition 4: Phosphate pH 7; for Solubility, Condition 5: Phosphate pH 7.5

| SMILES | IC50 [1] | Solubility, Condition 1 [2] | Solubility, Condition 2 [2] | Solubility, Condition 3 [2] | Solubility, Condition 4 [2] | Solubility, Condition 5 [2] |
| --- | --- | --- | --- | --- | --- | --- |
| CC[C@H](C)[C@@H]1NC(=O)[C@@H](NC(=O)[C@H](Cc2ccccc2)NC(=O)[C@H](CCC(=O)O)NC(=O)[C@H](CO)NC(C)=O)CSSC[C@@H](C(=O)N[C@H](C(=O)NCC(=O)N[C@@H](C)C(=O)N[C@@H](CCC(=O)O)C(=O)N[C@@H](CO)C(N)=O)[C@@H](C)O)NC(=O)[C@H](CCCNC(=N)N)NC(=O)[C@H](Cc2c[nH]cn2)NC(=O)[C@H](CCC(=O)O)NC(=O)CNC(=O)[C@H](Cc2c[nH]c3ccccc23)NC(=O)[C@H](CC(=O)O)NC(=O)[C@H](CCC(N)=O)NC(=O)[C@H](Cc2cn(C)c3ccccc23)NC1=O [Compound 67] (Ac-SEFCI[Trp(1-Me)]QDWGEHRCTGAES-NH2; disulfide 4-14) | < 100 nM | − (“−” denotes lack of solubility at the given condition, as UV absorbance at 340 nm exceeds 0.1 AU and/or it is visibly turbid or contains particles) | − (“−” denotes lack of solubility at the given condition, as UV absorbance at 340 nm exceeds 0.1 AU and/or it is visibly turbid or contains particles) | + (“+” denotes solubility at the given condition, as determined by UV absorbance being less than 0.1 AU at 340 nm and the sample being clear when manually inspected) | + (“+” denotes solubility at the given condition, as determined by UV absorbance being less than 0.1 AU at 340 nm and the sample being clear when manually inspected) | + (“+” denotes solubility at the given condition, as determined by UV absorbance being less than 0.1 AU at 340 nm and the sample being clear when manually inspected) |
| CC[C@H](C)[C@H](NC(=O)[C@H](C)NC(=O)[C@H](CO)NC(=O)CNC(=O)[C@H](CCC(=O)O)NC(C)=O)C(=O)N[C@H]1CSSC[C@@H](C(=O)N(C)CC(=O)N[C@@H](CCC(=O)O)C(=O)NCC(=O)N[C@@H](CCC(=O)O)C(N)=O)NC(=O)[C@H](CCCNC(=N)N)NC(=O)[C@H](Cc2c[nH]cn2)NC(=O)[C@H](CCC(=O)O)NC(=O)CNC(=O)[C@H](Cc2c[nH]c3ccccc23)NC(=O)[C@H](CC(=O)O)NC(=O)[C@H](CCC(N)=O)NC(=O)[C@H](Cc2c[nH]c3ccccc23)NC(=O)[C@H]([C@@H](C)CC)NC1=O [Compound 44] (Ac-EGSAICIWQDWGEHRC[Sar]EGE-NH2; disulfide 6-16) | < 250 nM | − (“−” denotes lack of solubility at the given condition, as UV absorbance at 340 nm exceeds 0.1 AU and/or it is visibly turbid or contains particles) | − (“−” denotes lack of solubility at the given condition, as UV absorbance at 340 nm exceeds 0.1 AU and/or it is visibly turbid or contains particles) | + (“+” denotes solubility at the given condition, as determined by UV absorbance being less than 0.1 AU at 340 nm and the sample being clear when manually inspected) | + (“+” denotes solubility at the given condition, as determined by UV absorbance being less than 0.1 AU at 340 nm and the sample being clear when manually inspected) | + (“+” denotes solubility at the given condition, as determined by UV absorbance being less than 0.1 AU at 340 nm and the sample being clear when manually inspected) |
| CC[C@H](C)[C@H](NC(=O)[C@H](C)NC(=O)[C@H](CO)NC(=O)CNC(=O)[C@H](CCC(=O)O)NC(C)=O)C(=O)N[C@H]1CSSC[C@@H](C(=O)N[C@H](C(=O)N[C@@H](CCC(=O)O)C(N)=O)[C@@H](C)O)NC(=O)[C@H](CCCNC(=N)N)NC(=O)[C@H](Cc2c[nH]cn2)NC(=O)[C@H](CCC(=O)O)NC(=O)CNC(=O)[C@H](Cc2c[nH]c3ccccc23)NC(=O)[C@H](CC(=O)O)NC(=O)[C@H](CCC(N)=O)NC(=O)[C@H](Cc2c[nH]c3ccccc23)NC(=O)[C@H]([C@@H](C)CC)NC1=O [Compound 55] (Ac-EGSAICIWQDWGEHRCTE-NH2; disulfide 6-16) | < 250 nM | − (“−” denotes lack of solubility at the given condition, as UV absorbance at 340 nm exceeds 0.1 AU and/or it is visibly turbid or contains particles) | − (“−” denotes lack of solubility at the given condition, as UV absorbance at 340 nm exceeds 0.1 AU and/or it is visibly turbid or contains particles) | + (“+” denotes solubility at the given condition, as determined by UV absorbance being less than 0.1 AU at 340 nm and the sample being clear when manually inspected) | + (“+” denotes solubility at the given condition, as determined by UV absorbance being less than 0.1 AU at 340 nm and the sample being clear when manually inspected) | + (“+” denotes solubility at the given condition, as determined by UV absorbance being less than 0.1 AU at 340 nm and the sample being clear when manually inspected) |
| CC[C@H](C)[C@@H]1NC(=O)[C@@H](NC(=O)[C@H](Cc2ccccc2)NC(=O)[C@H](C)NC(=O)[C@H](CO)NC(=O)CNC(=O)[C@H](CCC(=O)O)NC(C)=O)CSSC[C@@H](C(=O)N[C@H](C(=O)N[C@@H](CCC(=O)O)C(N)=O)[C@@H](C)O)NC(=O)[C@H](CCCNC(=N)N)NC(=O)[C@H](Cc2c[nH]cn2)NC(=O)[C@H](CCC(=O)O)NC(=O)CNC(=O)[C@H](Cc2c[nH]c3ccccc23)NC(=O)[C@H](CC(=O)O)NC(=O)[C@H](CCC(N)=O)NC(=O)[C@H](Cc2ccc3ccccc3c2)NC1=O [Compound 60] (Ac-EGSAFCI[2Nal]QDWGEHRCTE-NH2; disulfide 6-16) | < 100 nM | − (“−” denotes lack of solubility at the given condition, as UV absorbance at 340 nm exceeds 0.1 AU and/or it is visibly turbid or contains particles) | − (“−” denotes lack of solubility at the given condition, as UV absorbance at 340 nm exceeds 0.1 AU and/or it is visibly turbid or contains particles) | + (“+” denotes solubility at the given condition, as determined by UV absorbance being less than 0.1 AU at 340 nm and the sample being clear when manually inspected) | + (“+” denotes solubility at the given condition, as determined by UV absorbance being less than 0.1 AU at 340 nm and the sample being clear when manually inspected) | + (“+” denotes solubility at the given condition, as determined by UV absorbance being less than 0.1 AU at 340 nm and the sample being clear when manually inspected) |
| CC[C@H](C)[C@H](NC(=O)[C@H](C)NC(=O)[C@H](CO)NC(=O)CNC(=O)[C@H](CCC(=O)O)NC(C)=O)C(=O)N[C@H]1CSSC[C@@H](C(=O)N(C)CC(=O)N[C@@H](CCC(=O)O)C(N)=O)NC(=O)[C@H](CCCNC(=N)N)NC(=O)[C@H](Cc2c[nH]cn2)NC(=O)[C@H](CCC(=O)O)NC(=O)CNC(=O)[C@H](Cc2c[nH]c3ccccc23)NC(=O)[C@H](CC(=O)O)NC(=O)[C@H](CCC(N)=O)NC(=O)[C@H](Cc2cn(C)c3ccccc23)NC(=O)[C@H]([C@@H](C)CC)NC1=O [Compound 49] (Ac-EGSAICI[Trp(1-Me)]QDWGEHRC[Sar]E-NH2; disulfide 6-16) | < 100 nM | − (“−” denotes lack of solubility at the given condition, as UV absorbance at 340 nm exceeds 0.1 AU and/or it is visibly turbid or contains particles) | − (“−” denotes lack of solubility at the given condition, as UV absorbance at 340 nm exceeds 0.1 AU and/or it is visibly turbid or contains particles) | + (“+” denotes solubility at the given condition, as determined by UV absorbance being less than 0.1 AU at 340 nm and the sample being clear when manually inspected) | + (“+” denotes solubility at the given condition, as determined by UV absorbance being less than 0.1 AU at 340 nm and the sample being clear when manually inspected) | + (“+” denotes solubility at the given condition, as determined by UV absorbance being less than 0.1 AU at 340 nm and the sample being clear when manually inspected) |
| CC[C@H](C)[C@H](NC(C)=O)C(=O)N[C@H]1CSSC[C@@H](C(=O)N[C@H](C(=O)N[C@@H](CCC(=O)O)C(=O)N[C@@H](C)C(N)=O)[C@@H](C)O)NC(=O)[C@H](CCCNC(=N)N)NC(=O)[C@H](Cc2c[nH]cn2)NC(=O)[C@H](CCC(=O)O)NC(=O)CNC(=O)[C@H](Cc2c[nH]c3ccccc23)NC(=O)[C@H](CC(=O)O)NC(=O)[C@H](CCC(N)=O)NC(=O)[C@H](Cc2c[nH]c3ccccc23)NC(=O)[C@H]([C@@H](C)CC)NC1=O [Compound 25] (Ac-ICIWQDWGEHRCTEA-NH2; disulfide 2-12) | < 100 nM | + (“+” denotes solubility at the given condition, as determined by UV absorbance being less than 0.1 AU at 340 nm and the sample being clear when manually inspected) | − (“−” denotes lack of solubility at the given condition, as UV absorbance at 340 nm exceeds 0.1 AU and/or it is visibly turbid or contains particles) | − (“−” denotes lack of solubility at the given condition, as UV absorbance at 340 nm exceeds 0.1 AU and/or it is visibly turbid or contains particles) | + (“+” denotes solubility at the given condition, as determined by UV absorbance being less than 0.1 AU at 340 nm and the sample being clear when manually inspected) | + (“+” denotes solubility at the given condition, as determined by UV absorbance being less than 0.1 AU at 340 nm and the sample being clear when manually inspected) |
